36 compounds from patent US11242361B2 (Proteostasis Therapeutics, Inc., priority 2013, dated 2022) can be followed below.

The assay deals with USP14 (Homo sapiens (Human), UniProt P54578). As to the kind of experiment: USP14 Inhibition Assay. In kind it is biochemical. The note with it: average value from a minimum of two experimental determinations, read-out: IC50 Category. The protocol:
Example 17: USP14 Inhibition Assay
“I” in the Table below designates an IC50 of >5 μM, “II” in the Table below designates and IC50 between 0.5 and 5 μM, and “III” designates an IC50<0.5 μM. The IC50 values in the Table below represent the average value from a minimum of two experimental determinations.

USP14, sequence (P54578 whole entry, looked up): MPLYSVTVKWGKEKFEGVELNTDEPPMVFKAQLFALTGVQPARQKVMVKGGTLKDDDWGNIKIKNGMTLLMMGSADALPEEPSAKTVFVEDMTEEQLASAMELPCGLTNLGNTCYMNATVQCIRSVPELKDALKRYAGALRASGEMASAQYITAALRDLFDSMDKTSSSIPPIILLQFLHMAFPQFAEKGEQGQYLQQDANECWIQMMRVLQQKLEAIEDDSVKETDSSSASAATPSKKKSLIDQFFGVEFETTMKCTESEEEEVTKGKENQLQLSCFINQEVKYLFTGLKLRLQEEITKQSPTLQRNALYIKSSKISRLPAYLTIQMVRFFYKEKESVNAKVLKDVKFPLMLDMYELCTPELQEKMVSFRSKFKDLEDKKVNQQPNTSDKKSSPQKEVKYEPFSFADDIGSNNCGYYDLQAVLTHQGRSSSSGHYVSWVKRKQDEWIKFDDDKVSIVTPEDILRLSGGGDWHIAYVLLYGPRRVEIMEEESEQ

The term IC50 denotes the concentration needed to halve the response being measured. Regarding `Cc1c(C(=O)CN2CCCCC2)c2ncccc2n1-c1ccc(C#N)cc1` [Compound 162, 4-(2-Methyl-3-(2-(piperidin-1-yl)acetyl)-1H-pyrrolo[3,2-b]pyridin-1-yl)benzonitrile], the IC50 was under 500 nM.
The same measure for `Cc1c(C(=O)CN2CCCCC2)c2cc(C#N)ccc2n1-c1ccc(C#N)cc1` [Compound 163]: under 500 nM.
On to `Cc1c(C(=O)CN2CCCCC2)c2ccccc2n1-c1ccc([N+](=O)[O-])cc1` [Compound 164], for which the IC50 was under 500 nM.
`Cc1c(C(=O)CN2CCCCC2)c2nc(F)ccc2n1-c1ccc(C#N)cc1` [Compound 165]: the IC50 was under 500 nM.
`COc1cccc2c1c(C(=O)CN1CCCCC1)c(C)n2-c1ccc(C#N)cc1` [Compound 167]: the IC50 is under 500 nM.
In the case of `Cc1c(C(=O)CN2CCCCC2)c2c(F)cccc2n1-c1ccc(C#N)cc1` [Compound 168] it was under 500 nM; in that of `Cc1ccc2c(C(=O)CN3CCCCC3)c(C)n(-c3ccc(C#N)cc3)c2c1` [Compound 169, 4-(2,6-Dimethyl-3-(2-(piperidin-1-yl)acetyl)-1H-indol-1-yl)benzonitrile], under 500 nM; in that of `Cc1c(C(=O)CN2CCCCC2)c2cccc(F)c2n1-c1ccc(C#N)cc1` [Compound 170], under 500 nM.
On to `COC(=O)c1ccc2c(C(=O)CN3CCCCC3)c(C)n(-c3ccc(Cl)cc3)c2c1` [Compound 171], for which the IC50 is under 500 nM.
The same measure for `CC(=O)Oc1ccc2c(C(=O)CN3CCCCC3)c(C)n(-c3ccc(Cl)cc3)c2c1` [Compound 172, 1-(4-Chlorophenyl)-2-methyl-3-(2-(piperidin-1-yl)acetyl)-1H-indol-6-yl Acetate]: under 500 nM.
Turning to `Cc1c(C(=O)CN2CCCCC2)c2nc(F)ccc2n1-c1ccc(Cl)cc1` [Compound 173], the IC50 is under 500 nM.
As to `Cc1c(C(=O)CN2CCCCC2)c2ccc(C#N)cc2n1-c1ccc(C#N)cc1` [Compound 175], the IC50 is under 500 nM.
In the case of `Cc1c(C(=O)CN2CCCCC2)c2ccc(F)cc2n1-c1ccc(C#N)cc1` [Compound 176] it was under 500 nM; in that of `COc1ccc2c(n1)c(C(=O)CN1CCCCC1)c(C)n2-c1ccc(C#N)cc1` [Compound 177, 4-(5-Methoxy-2-methyl-3-(2-(piperidin-1-yl)acetyl)-1H-pyrrolo[3,2-b]pyridin-1-yl)benzonitrile], under 500 nM; in that of `COc1ccc2c(C(=O)CN3CCCCC3)c(C)n(-c3ccc(Cl)cc3)c2c1` [Compound 178], under 500 nM.
In the case of `Cc1c(C(=O)CN2CCCCC2)c2ccc(OCC(N)=O)cc2n1-c1ccc(Cl)cc1` [Compound 179, 2-((1-(4-Chlorophenyl)-2-methyl-3-(2-(piperidin-1-yl)acetyl)-1H-indol-6-yl)oxy)acetamide], the half-maximal inhibitory concentration (IC50) is under 500 nM.
The same measure for `Cc1c(C(=O)CN2CCCCC2)c2ccc(C(C)C)cc2n1-c1ccc(C#N)cc1` [Compound 180, 4-(6-Isopropyl-2-methyl-3-(2-(piperidin-1-yl)acetyl)-1H-indol-1-yl)benzonitrile]: under 500 nM; for `Cc1c(C(=O)CN2CCCCC2)c2ncccc2n1-c1ccc(C#N)nc1` [Compound 181, 5-(2-Methyl-3-(2-(piperidin-1-yl)acetyl)-1H-pyrrolo[3,2-b]pyridin-1-yl)picolinonitrile]: under 500 nM; for `Cc1c(C(=O)CN2CCCCC2)c2ccc(CO)cc2n1-c1ccc(Cl)cc1` [Compound 182, 1-(1-(4-Chlorophenyl)-6-(hydroxymethyl)-2-methyl-1H-indol-3-yl)-2-(piperidin-1-yl)ethan-1-one]: under 500 nM.
The same measure for `CC(=O)NCc1ccc2c(c1)c(C(=O)CN1CCCCC1)c(C)n2-c1ccc(C#N)cc1` [Compound 183, N-((1-(4-Cyanophenyl)-2-methyl-3-(2-(piperidin-1-yl)acetyl)-1H-indol-5-yl)methyl)acetamide]: under 500 nM; for `Cc1cnc2c(C(=O)CN3CCCCC3)c(C)n(-c3ccc(C#N)cc3)c2c1` [Compound 184, 4-(2,6-Dimethyl-3-(2-(piperidin-1-yl)acetyl)-1H-pyrrolo[3,2-b]pyridin-1-yl)benzonitrile]: under 500 nM.
Regarding `Cc1c(C(=O)CN2CCCCC2)c2ccc(CN)cc2n1-c1ccc(Cl)cc1` [Compound 185, 1-(6-(Aminomethyl)-1-(4-chlorophenyl)-2-methyl-1H-indol-3-yl)-2-(piperidin-1-yl)ethan-1-one], the IC50 is under 500 nM.
With `Cc1c(C(=O)CN2CCCCC2)c2cc(N)ccc2n1-c1ccc(C#N)cc1` [Compound 186, 4-(5-Amino-2-methyl-3-(2-(piperidin-1-yl)acetyl)-1H-indol-1-yl)benzonitrile], the IC50 is under 500 nM.
For the compound `Cc1c(C(=O)CN2CCCCC2)c2cc(NC(=O)C(C)(C)C)ccc2n1-c1ccc(C#N)cc1` [Compound 187, N-(1-(4-Cyanophenyl)-2-methyl-3-(2-(piperidin-1-yl)acetyl)-1H-indol-5-yl)pivalamide], the IC50 was under 500 nM.
Consider `Cc1c(C(=O)CN2CCCCC2)c2ccc(CN(C)C)cc2n1-c1ccc(Cl)cc1` [Compound 188, 1-(1-(4-chlorophenyl)-6-((Dimethylamino)methyl)-2-methyl-1H-indol-3-yl)-2-(piperidin-1-yl)ethan-1-one], for which the IC50 is under 500 nM.
Turning to `Cc1cnc2c(C(=O)CN3CCCC(F)C3)c(C)n(-c3ccc(C#N)cc3)c2c1` (stereo not drawn) [Compound 189], the IC50 was under 500 nM.
`Cc1cnc2c(C(=O)CN3CCC(F)CC3)c(C)n(-c3ccc(C#N)cc3)c2c1` [Compound 190]: the IC50 was under 500 nM.
In the case of `CC(=O)Nc1ccc2c(c1)c(C(=O)CN1CCCCC1)c(C)n2-c1ccc(C#N)cc1` [Compound 191, N-(1-(4-Cyanophenyl)-2-methyl-3-(2-(piperidin-1-yl)acetyl)-1H-indol-5-yl)acetamide], the IC50 was under 500 nM.
For `CN(C)c1c(C(=O)CN2CCCCC2)c2ccccc2n1-c1ccc(Cl)cc1` [Compound 192], the IC50 was over 5000 nM.
Consider `COc1cc2c(C(=O)CN3CCCCC3)c(C)n(-c3ccc(C#N)cc3)c2cc1OC(F)(F)F` [Compound 193], for which the 50% inhibitory concentration (IC50) lay in the range of 500 to 5000 nM.
As for `Cc1c(C(=O)CN2CCCCC2)c2ccc(CCC(N)=O)cc2n1-c1ccc(C#N)cc1` [Compound 194, 3-(1-(4-Cyanophenyl)-2-methyl-3-(2-(piperidin-1-yl)acetyl)-1H-indol-6-yl)propanamide], the IC50 is under 500 nM.
Consider `Cc1cc2c(nc1C)c(C(=O)CN1CCCCC1)c(C)n2-c1ccc(C#N)cc1` [Compound 195], for which the IC50 was under 500 nM.
As to `CC(=O)N(C)c1ccc2c(c1)c(C(=O)CN1CCCCC1)c(C)n2-c1ccc(C#N)cc1` [Compound 196, N-(1-(4-Cyanophenyl)-2-methyl-3-(2-(piperidin-1-yl)acetyl)-1H-indol-5-yl)-N-methylacetamide], the IC50 was under 500 nM.
Consider `CCOC(=O)Cc1ccc2c(C(=O)CN3CCCCC3)c(C)n(-c3ccc(C#N)cc3)c2c1` [Compound 197], for which the IC50 is under 500 nM.
As to `Cc1c(C(=O)CN2CCCCC2)c2ccc(CC(=O)O)cc2n1-c1ccc(C#N)cc1` [Compound 198, 2-(1-(4-Cyanophenyl)-2-methyl-3-(2-(piperidin-1-yl)acetyl)-1H-indol-6-yl)acetic Acid], the IC50 is under 500 nM.
In the case of `CNc1ccc2c(c1)c(C(=O)CN1CCCCC1)c(C)n2-c1ccc(C#N)cc1` [Compound 199, 4-(2-Methyl-5-(methylamino)-3-(2-(piperidin-1-yl)acetyl)-1H-indol-1-yl)benzonitrile], the IC50 was under 500 nM.
